According to patent publication US8653143B2, “Use of panduratin derivative or Boesenbergia pandurata extract” (Newtree Co., Ltd., priority 2008, dated 2014):

Columns and labels:
Format in all cases: in vivo, C57BL/6 mice
[1] = tested on: mice in which obesity is induced with a high-fat diet; assay: Body fat (abdominal, perirenal, epididymal) in high-fat diet obese mice treated with panduratin derivatives; conditions: administration for 8 weeks, same manner as panduratin A (50 mg/kg)
Procedure: (§1) 3-week-old C57BL/6 mice were accustomed for a week, and a high-fat diet (Product # D12492, Research Diet Inc., New Brunswick, N.J., USA) was provided for 6 weeks to induce obesity. Then, the mice were randomly divided into 3 groups, 12 per each group. For the test group, panduratin A suspended in 0.25% carboxymethyl cellulose was administered once a day at regular hours for 8 weeks, with an administration dose of 50 mg/kg body weight. For comparison, 0.25% carboxymethyl cellulose only (control) of the same amount as that for the test group or sibutramine suspended in 0.25% carboxymethyl cellulose (5 mg/kg body weight) was orally administered. After administration for 8 weeks, the mice were fasted for at least 12 hours. After cutting open the abdomen, perirenal fat and epididymal fat were taken out, washed with physiological saline, dried, and then weighed.
(§2) The effect of isopanduratin A prepared in Example 3 on body weight and body fat decrease was investigated in the same manner as in Examples 5 and 6. After administration for 8 weeks, there was no difference between the test group and other groups in food intake.
(§3) The effect of 4-hydroxypanduratin A prepared in Example 4 on body weight and body fat decrease was investigated in the same manner as in Examples 5 and 6. After administration for 8 weeks, there was no difference between the 4-hydroxypanduratin-administered test group and other groups in food intake.

[2] = tested on: mice in which obesity is induced with a high-fat diet; assay: Body weight and food intake of high-fat diet obese mice treated with panduratin derivatives; conditions: for food intake, test group versus other groups: high-fat diet obese C57BL/6 mice; for body weight increase after 8 weeks: high-fat diet control about 32%
Text: as §1, with “Mice in which obesity is induced with a high-fat diet were selected as a model to investigate the obesity-relieving effect of panduratin A prepared in Example 2. 3-week-old” for “3-week-old”, “Then, food intake and body weight of” for “After administration for 8 weeks,”, “measured every week,” for “fasted”, “8 weeks.” for “at least 12 hours. After cutting open the abdomen, perirenal fat and epididymal fat were taken out, washed with physiological saline, dried, and then weighed.”
as §2, §3

[3] = tested on: mice in which obesity is induced with a high-fat diet; assay: Body weight and food intake of high-fat diet obese mice treated with Boesenbergia pandurata extract; conditions: sibutramine 5 mg/kg orally for 8 weeks; high-fat diet control about 33%
Text: Mice in which obesity is induced with a high-fat diet were selected as a model to investigate the obesity-relieving effect of the Boesenbergia pandurata extract prepared in Example 1. 4-week-old C57BL/6 mice were accustomed for a week, and a high-fat diet (Product # D12492, Research Diet Inc., New Brunswick, N.J., USA) was provided for 6 weeks to induce obesity. Then, the mice were randomly divided into 3 groups, 8 per each group. For the test group, Boesenbergia pandurata extract suspended in 0.25% carboxymethyl cellulose was administered once a day at regular hours for 8 weeks, with an administration dose of 200 mg/kg body weight. For comparison, 0.25% carboxymethyl cellulose only (control) of the same amount as that for the test group or sibutramine suspended in 0.25% carboxymethyl cellulose (5 mg/kg body weight) was orally administered. Then, food intake and body weight of the mice were measured every week, for 8 weeks.

[4] = tested on: mice in which obesity is induced with a high-fat diet; assay: Serum total cholesterol, triglyceride, total lipid and leptin in high-fat diet obese mice; conditions: sibutramine 5 mg/kg orally for 8 weeks
Procedure: as §1, with “blood was” for “perirenal fat and epididymal fat were”, “from the heart. The blood was centrifuged at 2,800 rpm at 4° C. for 30 minutes to separate the serum. The separated serum was stored at −70° C.” for “out, washed with physiological saline, dried, and then weighed.”
Total cholesterol level in the serum was determined by measuring absorbance at 500 nm using a standard enzyme assay kit. Serum triglyceride level was determined by measuring absorbance at 546 nm using a glycerol phosphate oxidase assay kit. Serum total lipid level was determined by measuring absorbance at 540 nm by the Frings method. Serum leptin level was determined by radioimmunoassay (RIA) using a mouse leptin RIA kit (Linco Research, Inc. USA).

[5] = 50 mg/kg body weight once a day for 8 weeks

Row | SMILES | decrease of epididymal fat weight as compared to the high-fat diet control group [1] [%] | decrease of perirenal fat weight as compared to the high-fat diet control group [1] [%] | food intake, test group versus other groups [2, 5] | body weight increase after 8 weeks [2, 5] [%] | body weight increase after 8 weeks ([2]; sibutramine 5 mg/kg body weight orally for 8 weeks) | body weight increase after 8 weeks [3] | total cholesterol level in the serum ([4]; control 140.73±16.47) [mg/dL] | serum triglyceride level ([4]; control 154.36±27.02) [mg/dL] | total lipid level in the serum ([4]; control 555.18±80.86) [mg/dL]
1 | CC(C)=CC[C@@H]1C(C)=CC[C@@H](c2ccccc2)[C@@H]1C(=O)c1c(O)cc(O)cc1O [4-hydroxypanduratin A] | 46 | 33 | no difference | ~13 | – | – | – | – | –
2 | COc1cc(O)cc(O)c1C(=O)[C@@H]1[C@H](CC=C(C)C)C(C)=CC[C@H]1c1ccccc1 [isopanduratin A, (4,6-dihydroxy-2-methoxyphenyl)[3-methyl-2-(3-methylbut-2-enyl)-6-phenylcyclohex-3-enyl]methanone] | 32 | 25 | no difference | ~17 | – | – | – | – | –
3 | CC(C)CC(N(C)C)C1(c2ccc(Cl)cc2)CCC1 (stereo not shown) [sibutramine] | – | – | – | – | about 20% | about 27% | 122.4 ± 22.6 | 150.2 ± 20.19 | 493.2 ± 111.9
